Molecular target: recombinant human CCR5 receptor (Homo sapiens, UniProt P51681)
Experiment: in vitro radioligand binding assay: inhibition of the binding of iodinated MIP-1α
Conditions: membranes from Chinese hamster ovary cells expressing CCR5; 0.1 nM iodinated MIP-1α; average if tested more than once

recombinant human CCR5 receptor, sequence (P51681 whole entry): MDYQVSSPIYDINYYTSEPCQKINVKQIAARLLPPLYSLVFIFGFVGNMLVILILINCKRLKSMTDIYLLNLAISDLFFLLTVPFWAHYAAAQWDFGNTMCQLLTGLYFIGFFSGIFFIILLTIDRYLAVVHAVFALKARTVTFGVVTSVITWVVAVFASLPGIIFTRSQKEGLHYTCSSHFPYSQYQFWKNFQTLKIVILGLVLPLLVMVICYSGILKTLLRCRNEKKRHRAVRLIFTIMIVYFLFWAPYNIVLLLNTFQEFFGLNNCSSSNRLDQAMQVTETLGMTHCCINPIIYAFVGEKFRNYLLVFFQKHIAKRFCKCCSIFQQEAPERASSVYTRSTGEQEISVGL

IC50	SMILES
363 nM	CCN(C(=O)Cc1ccc(S(C)(=O)=O)cc1)C1CCN(CCC(c2ccccc2)N2CCN(C)CC2)CC1 (centres unmarked) [6 of Table I]
5.62 nM	CCN(C(=O)Cc1ccc(S(C)(=O)=O)cc1)C1CCN(CCC(c2ccccc2)N2CCN(S(=O)(=O)CC(F)(F)F)CC2)CC1 (centres unmarked) [15 of Table II]

Reference: patent publication US7192973B2, “Piperidine derivatives and their use as modulators of chemokine receptor activity (especially CCR5)” (AstraZeneca AB, priority 2001, dated 2007)
